Measured values as given in US20020137929A1, “1 - (3-heterocyclylphenyl) isothiourea, -isourea, -guanidine and -amidine herbicidal agents” (Intellectual Property Department, BASF Aktiengesellschaft, priority 1998, published 2002).

Key:
[1] = system: SETVI (Foxtail, Green); experiment: Postemergence herbicidal evaluation; format: in vivo, Setaria viridis; conditions: postemergence
Summary of the method: (§1)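 Visual 0–9 rating versus control (stand, vigor, malformation, size, chlorosis, overall appearance), taken four to five weeks post-spray. Two-week-old seedlings received roughly 0.0156–0.500 kg/ha active in acetone/water (50/50) with 0.5% TWEEN 20 via nozzle at 40 psi.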

[2] = system: CYPIR (Rice Flatsedge); experiment: Preemergence weed control under flooded paddy conditions; format: in vivo, Cyperus iria; conditions: rated 3-4 weeks after treatment
Summary of the method: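 Flooded-pot preemergence screen with silt loam and seeds in the upper 0.5 cm. Dose about 0.0313 to 0.500 kg/ha, delivered into flood water; visual 0-9 score after 3 to 4 weeks.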

[3] = system: ORYSAT (Rice, Tebonnet); experiment: Postemergence herbicidal evaluation; format: in vivo, Oryza sativa, (L.) Tebonnet; conditions: postemergence
Summary of the method: as §1

[4] = system: CYPSE (Flatsedge); experiment: Postemergence weed control under flooded paddy conditions; format: in vivo, Cyperus serotinus; conditions: postemergence weeds
Summary of the method: (§2)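 Weeds 3 to 5 cm tall and rice seedlings at the 1.5 to 2.5 leaf stage were flooded, with water held 1.5 to 3 cm above the soil. Compounds in 50/50 v/v aqueous/acetone went into the flood water at about 0.0313 to 0.500 kg/ha. Visual 0-9 ratings versus control were made 3 to 4 weeks later.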

[5] = system: ZEAMX (Corn, Field); experiment: Postemergence herbicidal evaluation; format: in vivo, Zea mays; conditions: postemergence
Summary of the method: as §1

[6] = system: CHEAL (Lambsquarters, Common); experiment: Postemergence herbicidal evaluation; format: in vivo, Chenopodium album; conditions: postemergence
Summary of the method: as §1

[7] = system: AMBEL (Ragweed, Common); experiment: Preemergence herbicidal evaluation; format: in vivo, Ambrosia artemisifolia; conditions: rated 4-5 weeks after treatment
Summary of the method: (§3)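 Seeds were planted in potting soil in cups, then sprayed preemergence with the test compound in aqueous acetone at about 0.0156 to 0.500 kg per hectare. Cups were kept under greenhouse conditions and visually rated 4–5 weeks after treatment on a 0–9 scale against an untreated control.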

[8] = system: TRZAWR (Wheat, Winter, cv Riband); experiment: Postemergence herbicidal evaluation; format: in vivo, Triticum aestivum; conditions: postemergence
Summary of the method: as §1

[9] = system: GALAP (Galium); experiment: Preemergence herbicidal evaluation; format: in vivo, Galium aparine; conditions: rated 4-5 weeks after treatment
Summary of the method: as §3

[10] = system: SAGPY (Arrowhead (Pygmaea)); experiment: Postemergence weed control under flooded paddy conditions; format: in vivo, Sagittaria pygmaea; conditions: postemergence weeds
Summary of the method: as §2

[11] = system: SETVI (Foxtail, Green); experiment: Preemergence herbicidal evaluation; format: in vivo, Setaria viridis; conditions: rated 4-5 weeks after treatment
Summary of the method: as §3

[12] = system: GLXMAW (Soybean, Williams); experiment: Postemergence herbicidal evaluation; format: in vivo, Glycine max, (L.) Merr. cv Williams; conditions: postemergence
Summary of the method: as §1

[13] = system: ECHORC (Watergrass (Calif.)); experiment: Postemergence weed control under flooded paddy conditions; format: in vivo, Echinochloa oryzoides; conditions: postemergence weeds
Summary of the method: as §2

[14] = system: ABUTH (Velvetleaf); experiment: Postemergence herbicidal evaluation; format: in vivo, Abutilon theophrasti; conditions: postemergence
Summary of the method: as §1

[15] = rate 0.1160 kg/ha, 3-4 weeks after treatment
[16] = rate 0.2310 kg/ha, 3-4 weeks after treatment
[17] = rate 0.4630 kg/ha, 3-4 weeks after treatment
[18] = Rate 0.0313 kg/ha, rated 3 to 4 weeks after treatment
[19] = Rate 0.0625 kg/ha, rated 3 to 4 weeks after treatment
[20] = Rate 0.1250 kg/ha, rated 3 to 4 weeks after treatment
[21] = Rate 0.2500 kg/ha, rated 3 to 4 weeks after treatment

Structure (SMILES): CCOC(=O)CN1C(=O)C(=C(C)C)S/C1=N/c1cc(-n2c(=O)cc(C(F)(F)F)n(C)c2=O)c(F)cc1Cl [Compound 20, Ethyl 2-{{2-chloro-5-[3,6-dihydro-3-methyl-2,6-dioxo-4-(trifluoromethyl)-1(2H)-pyrimidinyl]-4-fluorophenyl}imino}-5-isopropylidene-4-oxo-3-thiazolidineacetate]
- SETVI herbicidal rating ([1]; rate 0.0158 kg/ha): 1.0
- SETVI herbicidal rating ([1]; rate 0.0315 kg/ha): 1.0
- SETVI herbicidal rating ([1]; rate 0.0630 kg/ha): 4.0
- Herbicidal rating CYPIR ([2]; 0.1160 kg/ha): 0.0
- Herbicidal rating CYPIR ([2]; 0.2310 kg/ha): 0.0
- Herbicidal rating CYPIR ([2]; 0.4630 kg/ha): 0.0
- ORYSAT herbicidal rating ([3]; rate 0.0158 kg/ha): 2.0
- ORYSAT herbicidal rating ([3]; rate 0.0315 kg/ha): 2.0
- ORYSAT herbicidal rating ([3]; rate 0.0630 kg/ha): 3.0
- Herbicidal rating CYPSE [4, 15]: 5.0
- Herbicidal rating CYPSE [4, 16]: 5.0
- Herbicidal rating CYPSE [4, 17]: 5.0
- ZEAMX herbicidal rating ([5]; rate 0.0158 kg/ha): 4.5
- ZEAMX herbicidal rating ([5]; rate 0.0315 kg/ha): 5.0
- ZEAMX herbicidal rating ([5]; rate 0.0630 kg/ha): 5.5
- CHEAL herbicidal rating ([6]; rate 0.0158 kg/ha): 4.0
- CHEAL herbicidal rating ([6]; rate 0.0315 kg/ha): 6.0
- CHEAL herbicidal rating ([6]; rate 0.0630 kg/ha): 7.0
- AMBEL preemergence herbicidal rating ([7]; rate 0.0625 kg/ha): 0.0
- AMBEL preemergence herbicidal rating ([7]; rate 0.1250 kg/ha): 0.0
- AMBEL preemergence herbicidal rating ([7]; rate 0.2500 kg/ha): 3.0
- TRZAWR herbicidal rating ([8]; rate 0.0158 kg/ha): 3.5
- TRZAWR herbicidal rating ([8]; rate 0.0315 kg/ha): 4.0
- TRZAWR herbicidal rating ([8]; rate 0.0630 kg/ha): 4.0
- GALAP preemergence herbicidal rating ([9]; rate 0.0625 kg/ha): 0.0
- GALAP preemergence herbicidal rating ([9]; rate 0.1250 kg/ha): 0.0
- GALAP preemergence herbicidal rating ([9]; rate 0.2500 kg/ha): 0.0
- Herbicidal rating SAGPY [10, 15]: 0.0
- Herbicidal rating SAGPY [10, 16]: 0.0
- Herbicidal rating SAGPY [10, 17]: 3.0
- SETVI preemergence herbicidal rating ([11]; rate 0.0625 kg/ha): 0.0
- SETVI preemergence herbicidal rating ([11]; rate 0.1250 kg/ha): 0.0
- SETVI preemergence herbicidal rating ([11]; rate 0.2500 kg/ha): 7.0
- GLXMAW herbicidal rating ([12]; rate 0.0158 kg/ha): 3.5
- GLXMAW herbicidal rating ([12]; rate 0.0315 kg/ha): 4.0
- GLXMAW herbicidal rating ([12]; rate 0.0630 kg/ha): 5.5
- Herbicidal rating ECHORC [13, 15]: 7.0
- Herbicidal rating ECHORC [13, 16]: 7.0
- Herbicidal rating ECHORC [13, 17]: 7.0
- ABUTH herbicidal rating ([14]; rate 0.0158 kg/ha): 9.0
- ABUTH herbicidal rating ([14]; rate 0.0315 kg/ha): 9.0
- ABUTH herbicidal rating ([14]; rate 0.0630 kg/ha): 9.0

Structure (SMILES): COC(=O)[C@H](Cc1ccccc1)N1C(=O)CS/C1=N/c1cc(-n2c(=O)cc(C(F)(F)F)n(C)c2=O)c(F)cc1Cl [Compound 72, Methyl α-benzyl-2-{{2-chloro-5-[3,6-dihydro-3-methyl-2,6-dioxo-4-(trifluoromethyl)-1(2H)-pyrimidinyl]-4-fluorophenyl]imino}-4-oxo-3-thiazolidineacetate, L-]
- SETVI herbicidal rating ([1]; rate 0.0158 kg/ha): 2.0
- SETVI herbicidal rating ([1]; rate 0.0315 kg/ha): 4.0
- SETVI herbicidal rating ([1]; rate 0.0630 kg/ha): 2.0
- CYPIR herbicidal effect rating ([2]; 0.0313 kg/ha): 6.0
- CYPIR herbicidal effect rating ([2]; 0.0625 kg/ha): 6.0
- CYPIR herbicidal effect rating ([2]; 0.1250 kg/ha): 7.0
- CYPIR herbicidal effect rating ([2]; 0.2500 kg/ha): 9.0
- ORYSAT herbicidal rating ([3]; rate 0.0158 kg/ha): 3.5
- ORYSAT herbicidal rating ([3]; rate 0.0315 kg/ha): 3.5
- ORYSAT herbicidal rating ([3]; rate 0.0630 kg/ha): 4.5
- Herbicidal rating CYPSE [4, 18]: 0.0
- Herbicidal rating CYPSE [4, 19]: 0.0
- Herbicidal rating CYPSE [4, 20]: 9.0
- Herbicidal rating CYPSE [4, 21]: 9.0
- ZEAMX herbicidal rating ([5]; rate 0.0158 kg/ha): 4.0
- ZEAMX herbicidal rating ([5]; rate 0.0315 kg/ha): 4.5
- ZEAMX herbicidal rating ([5]; rate 0.0630 kg/ha): 6.5
- CHEAL herbicidal rating ([6]; rate 0.0158 kg/ha): 7.0
- CHEAL herbicidal rating ([6]; rate 0.0315 kg/ha): 9.0
- Preemergence herbicidal rating AMBEL ([7]; rate 0.0156 kg/ha): 0.0
- Preemergence herbicidal rating AMBEL ([7]; rate 0.0625 kg/ha): 2.0
- Preemergence herbicidal rating AMBEL ([7]; rate 0.1250 kg/ha): 9.0
- Preemergence herbicidal rating AMBEL ([7]; rate 0.2500 kg/ha): 9.0
- TRZAWR herbicidal rating ([8]; rate 0.0158 kg/ha): 3.5
- TRZAWR herbicidal rating ([8]; rate 0.0315 kg/ha): 4.0
- TRZAWR herbicidal rating ([8]; rate 0.0630 kg/ha): 4.5
- Preemergence herbicidal rating GALAP ([9]; rate 0.0156 kg/ha): 0.0
- Preemergence herbicidal rating GALAP ([9]; rate 0.0313 kg/ha): 0.0
- Preemergence herbicidal rating GALAP ([9]; rate 0.0625 kg/ha): 0.0
- Preemergence herbicidal rating GALAP ([9]; rate 0.1250 kg/ha): 0.0
- Preemergence herbicidal rating GALAP ([9]; rate 0.2500 kg/ha): 9.0
- Herbicidal rating SAGPY [10, 18]: 4.0
- Herbicidal rating SAGPY [10, 19]: 4.0
- Herbicidal rating SAGPY [10, 20]: 4.0
- Herbicidal rating SAGPY [10, 21]: 4.0
- Preemergence herbicidal rating SETVI ([11]; rate 0.0156 kg/ha): 0.0
- Preemergence herbicidal rating SETVI ([11]; rate 0.0313 kg/ha): 0.0
- Preemergence herbicidal rating SETVI ([11]; rate 0.0625 kg/ha): 0.0
- Preemergence herbicidal rating SETVI ([11]; rate 0.1250 kg/ha): 9.0
- Preemergence herbicidal rating SETVI ([11]; rate 0.2500 kg/ha): 9.0
- GLXMAW herbicidal rating ([12]; rate 0.0158 kg/ha): 5.5
- GLXMAW herbicidal rating ([12]; rate 0.0315 kg/ha): 5.5
- GLXMAW herbicidal rating ([12]; rate 0.0630 kg/ha): 7.0
- Herbicidal rating ECHORC [13, 18]: 9.0
- Herbicidal rating ECHORC [13, 19]: 9.0
- Herbicidal rating ECHORC [13, 20]: 9.0
- Herbicidal rating ECHORC [13, 21]: 9.0
- ABUTH herbicidal rating ([14]; rate 0.0158 kg/ha): 9.0
- ABUTH herbicidal rating ([14]; rate 0.0315 kg/ha): 9.0
- ABUTH herbicidal rating ([14]; rate 0.0630 kg/ha): 9.0
